Test results taken from patent US20090149496A1, “INHIBITORS OF THE TASK-1 AND TASK-3 ION CHANNEL” (SANOFI-AVENTIS DEUTSCHLAND GMBH, priority 2006, published 2009).
Several values for one entry are separate records, joined by “and”; a condition that tells them apart may be missing. Equal entries are not always repeated. Structures can show the parent of a compound that is named as a salt.

What was measured:
[1] = molecular target: T1, TASK1 (mouse) (Mus musculus, UniProt O35111); test: Activity on the TASK-1 channel in Xenopus oocytes (two-microelectrode voltage clamp), mouse channel; type: cell-based; settings: mouse TASK-1 expressed in Xenopus oocytes, voltage jumps to 40 mV, pH 7.4, room temperature; read-out: IC50 (μmol) TASK1 (mouse)
T1 construct: expressed in transfected cells; host or cells: Xenopus laevis oocytes injected with in vitro synthesized RNA
Procedure: (§1) A) Determination of the Activity on the TASK-1 Channel in Xenopus Oocytes
(§2) Mouse or human TASK-1 channels were expressed in Xenopus oocytes. For this purpose, oocytes were first isolated from Xenopus levis and defolliculated. Subsequently, TASK-1-encoding RNA synthesized in vitro was injected into these oocytes. After two days of TASK-1 protein expression, TASK-1 currents were measured on the oocytes with the two-microelectrode voltage clamp technique. In this measurement, the TASK-1 channels were generally activated with voltage jumps lasting 250 ms to 40 mV. The bath was flushed with a solution of the following composition: NaCl 96 mM, KCl 2 mM, CaCl2 1.8 mM, MgCl2 1 mM, HEPES 5 mM (titrated to pH 7.4 with NaOH). These experiments were performed at room temperature. For data acquisition and analysis, the following were used: Geneclamp amplifier (Axon Instruments, Foster City, USA) and MacLab D/A converter and software (ADinstruments, Castle Hill, Australia). The inventive substances were tested by adding them to the bath solution in different concentrations. The effects of the substances were calculated as the percentage inhibition of the TASK-1 control current which was obtained when no substance was added to the solution. The data was subsequently fitted to the Hill equation in order to determine the half-maximum inhibitory concentrations (IC50 values) for the particular substances.

[2] = molecular target: T2, TASK1 (human) (Homo sapiens, UniProt O14649); test: Activity on the TASK-1 channel with the FLIPR technique on CHO cells; type: cell-based; design: expressed in transfected cells; host or cells: CHO cells; settings: inhibition of human TASK-1 current, 10 μmol/l
Description: B) Determination of the Activity on the TASK-1 Channel with the FLIPR Technique

[3] = test system: TASK-1; settings: cited from earlier work; for Effect on the TASK-1 channel (in words): therapeutic concentrations, literature; for IC50: stated in the literature, read-out: IC50 value, blocker of TASK-1
[4] = test system: respiration; test: Respiratory minute volume in narcotized rats; type: in vivo, rat
Procedure: (§3) E) Investigation of the Effect on the Electromyographic Activity of the Genioglossus Muscle and the Respiratory Minute Volume in Rats
(§4) The compound of example 1 (R-enantiomer) and of example 2 was investigated for electromyographic activity of the genioglossus muscle and for respiration-stimulating effect on male urethane-chloralose-narcotized, vagotomized rats with a weight of from 250 to 300 g. For this purpose, the genioglossus EMG activity was measured by means of EMG electrodes. The respiration-stimulating effect was investigated by measuring the respiratory minute volume by means of a tracheal cannula. For the investigations, the rats were administered intravenously successively with 1, 3 and 10 mg/kg of the compound of example 1 (R-enantiomer) and of example 2, with glycofurol (50%) as the vehicle, at 15 minute intervals. CO2 was used as the positive control for the stimulation of the genioglossus activity and of the respiratory minute volume.

[5] = molecular target: T2, TASK1 (human); test: Activity on the TASK-1 channel in Xenopus oocytes (two-microelectrode voltage clamp), human channel; type: cell-based; design: expressed in transfected cells; host or cells: Xenopus laevis oocytes injected with in vitro synthesized RNA; settings: human TASK-1 expressed in Xenopus oocytes, voltage jumps to 40 mV, pH 7.4, room temperature; read-out: IC50 (μmol) TASK1 (human)
Procedure: as §1, §2

[6] = test system: genioglossus muscle; test: Electromyographic activity of the genioglossus muscle in narcotized rats; type: in vivo, rat
Procedure: as §3, §4

T2 sequence (O14649 whole entry): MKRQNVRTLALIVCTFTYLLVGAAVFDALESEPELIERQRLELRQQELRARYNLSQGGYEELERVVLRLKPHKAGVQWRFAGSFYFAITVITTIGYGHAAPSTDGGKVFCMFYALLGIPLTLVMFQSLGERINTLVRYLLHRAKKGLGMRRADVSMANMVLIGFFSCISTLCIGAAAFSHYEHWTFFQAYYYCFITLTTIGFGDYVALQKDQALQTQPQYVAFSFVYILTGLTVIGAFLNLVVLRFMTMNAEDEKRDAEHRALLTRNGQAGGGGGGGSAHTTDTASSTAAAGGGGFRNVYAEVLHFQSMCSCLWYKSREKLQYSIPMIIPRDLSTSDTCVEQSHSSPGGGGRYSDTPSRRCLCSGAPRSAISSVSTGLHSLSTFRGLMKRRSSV
T1 sequence (O35111 whole entry): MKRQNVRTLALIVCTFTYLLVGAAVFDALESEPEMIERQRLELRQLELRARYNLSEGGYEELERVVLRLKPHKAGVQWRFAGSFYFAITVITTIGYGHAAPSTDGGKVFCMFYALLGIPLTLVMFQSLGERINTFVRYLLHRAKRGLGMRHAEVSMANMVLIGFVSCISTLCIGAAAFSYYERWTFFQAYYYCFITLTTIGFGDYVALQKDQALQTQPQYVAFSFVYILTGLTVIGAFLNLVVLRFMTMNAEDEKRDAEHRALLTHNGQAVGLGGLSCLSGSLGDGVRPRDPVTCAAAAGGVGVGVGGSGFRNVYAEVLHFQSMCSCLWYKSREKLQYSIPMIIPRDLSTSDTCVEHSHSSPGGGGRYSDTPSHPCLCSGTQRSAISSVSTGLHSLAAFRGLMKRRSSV

Compound | IC50 [1] [nM] | inhibition at 10 µM [2] [%] | further results
CC[C@H](NC(=O)c1cc(OC)ccc1NS(=O)(=O)c1ccc(OC)cc1)c1ccccc1 [Example 4, (S)-5-Methoxy-2-(4-methoxybenzenesulfonylamino)-N-(1-phenylpropyl)benzamide] | 650 | – | –
COc1ccc(CC(=O)NCc2ccccc2-c2cc(Cl)ccc2C(=O)NCc2ccc(F)cc2F)cc1 [Example 6, N-(2,4-Difluorobenzyl)-5-chloro-2′-{[2-(4-methoxyphenyl)acetyl-amino]methyl}biphenyl-2-carboxamide] | 1150 | 68 | –
FC(F)OC(Cl)C(F)(F)F (stereo not shown) [isoflurane] | – | – | Effect on the TASK-1 channel (in words) [3]: activation
FC(F)(F)C(Cl)Br (stereo not shown) [halothane] | – | – | Effect on the TASK-1 channel (in words) [3]: activation
CCCCC/C=C\C/C=C\C/C=C\C/C=C\CCCC(=O)NCCO [anandamide] | – | – | IC50 [3]: 700 nM
COc1ccc(CC(=O)NCc2ccccc2-c2ccccc2C(=O)NCCc2cccnc2)cc1 [Example 2, N-(2-pyridin-3-ylethyl)-2′-{[2-(4-methoxyphenyl)acetylamino]-methyl}biphenyl-2-carboxamide] | 430 | 77 | Respiratory minute volume (mean) ([4]; 1 mg/kg intravenously): 253 mL/min; Respiratory minute volume (mean) ([4]; 3 mg/kg intravenously): 279 mL/min; Respiratory minute volume (mean) ([4]; 10 mg/kg intravenously): 291 mL/min; Effect on the respiratory minute volume (in words) ([4]; summary of tables 3 and 5): stimulate; IC50 [5]: 570 nM; EMG activity of the genioglossus muscle (mean) ([6]; 1 mg/kg intravenously): 3.15 arbitrary units; EMG activity of the genioglossus muscle (mean) ([6]; 3 mg/kg intravenously): 3.55 arbitrary units; EMG activity of the genioglossus muscle (mean) ([6]; 10 mg/kg intravenously): 3.82 arbitrary units; Effect on the electromyographic activity of the genioglossus muscle (in words) ([6]; summary of tables 2 and 4): stimulate
C[C@H](OC(=O)NCc1ccccc1-c1ccccc1C(=O)NC[C@@H](C)O)c1ccccc1 [Example 5, N-(2-(R)-hydroxypropyl)-2′-(α-(S)-methylbenzyloxycarbonyl-aminomethyl)biphenyl-2-carboxamide] | 2080 | 88 | –
CC[C@H](NC(=O)c1cc(F)ccc1NS(=O)(=O)c1cccc2cccnc12)c1ccccc1 [Example 3, (S)-5-Fluoro-2-(quinoline-8-sulfonylamino)-N-(1-phenylpropyl)benzamide sodium salt] | – | 82 | –
CCCCS(=O)(=O)Nc1ccccc1C(=O)N[C@@H](CC)c1ccc(OC)nc1 [Example 1 (S-enantiomer), 2-(butyl-1-sulfonylamino)-N-[1(S)-(6-methoxypyridin-3-yl)propyl]benzamide] | 800 | 58 | –
CCN1CC(CCN2CCOCC2)C(c2ccccc2)(c2ccccc2)C1=O (stereo not shown) [doxapram] | – | – | IC50 [3]: 400 nM
O=C=O [CO2, reference compound] | – | – | Respiratory minute volume (mean) ([4]; 5% CO2 positive control): 237 mL/min and 209 mL/min; EMG activity of the genioglossus muscle (mean) ([6]; 5% CO2 positive control): 5.13 arbitrary units and 3.15 arbitrary units
CCCCC/C=C\C/C=C\C/C=C\C/C=C\CCCC(=O)N[C@H](C)CO [methanandamide] | – | – | IC50 [3]: 700 nM

Second part, led by results:

IC50 [1] [nM] | inhibition at 10 µM [2] [%] | Compound | further results
1190 | 61 | COc1ccc(CC(=O)NCc2ccccc2-c2occc2C(=O)NCCC(C)C)cc1 [Example 10, N-(3-methylbutyl)-2-(2-{[2-(4-methoxyphenyl)acetyl-amino]methyl}phenyl)furan-3-carboxamide] | –
350 | 88 | COc1ccc(CC(=O)NCc2ccccc2-c2sccc2C(=O)NCc2ccc(F)cc2F)cc1 [Example 11, N-(2,4-Difluorobenzyl)-2-(2-{[2-(4-methoxyphenyl)acetyl-amino]methyl}phenyl)thiophene-3-carboxamide] | –
1830 | 70 | CC(C)CCNC(=O)c1cccc(-c2ccncc2CNC(=O)OCc2ccccc2)c1 [Example 15, Benzyl {4-[3-(3-methylbutylcarbamoyl)phenyl]pyridin-3-yl-methyl}carbamate] | –
2370 | 60 | COc1ccc(CC(=O)NCc2ccccc2-c2ccc(C(=O)NCc3ccc(F)cc3F)o2)cc1 [Example 9, N-(2,4-Difluorobenzyl)-5-(2-{[2-(4-methoxyphenyl)acetyl-amino]methyl}phenyl)furan-2-carboxamide] | –
2770 | – | COc1ccc(CCC(=O)NCc2ccccc2-c2cc(C(=O)NCCC(C)C)ccc2C)cc1 [Example 16, N-(3-Methylbutyl)-2′-{[3-(4-methoxyphenyl)propionylamino]methyl}-6-methylbiphenyl-3-carboxamide] | –
550 | 77 | COc1ccc(CC(=O)NCc2ccccc2-c2ccsc2C(=O)NCc2ccc(F)cc2F)cc1 [Example 8, N-(2,4-Difluorobenzyl)-3-(2-{[2-(4-methoxyphenyl)acetyl-amino]methyl}phenyl)thiophene-2-carboxamide] | –
2900 | 50 | O=C(NCc1ccccc1-c1ncccc1C(=O)NCc1ccc(F)cc1F)OCc1ccccc1 [Example 14, Benzyl {2-[3-(2,4-Difluorobenzylcarbamoyl)pyridin-2-yl]benzyl}carbamate] | –
3360 | 73 | C[C@H](OC(=O)NCc1ccccc1-c1cccnc1C(=O)NCCc1ccccn1)c1ccccc1 [Example 12, (S)-1-Phenylethyl {2-[2-(2-pyridin-2-ylethylcarbamoyl)pyridin-3-yl]benzyl}carbamate] | –
1060 | 57 | CN(CCc1ccccn1)C(=O)c1ccccc1-c1ccccc1CNC(=O)OCc1ccccc1 [Example 7, Benzyl {2′-[methyl-(2-pyridin-2-ylethyl)carbamoyl]biphenyl-2-ylmethyl}carbamate] | –
